Molecular target: T1, human MDM2 (GST-hMDM2 1-188), interaction with biotinylated-p53 (1-83) (Homo sapiens, UniProt Q00987)
T1 construct: Amino acid residues 1-188 of human MDM2 were expressed; made in house; host or cells: Escherichia coli
Assay: improved HTRF assay (HTRF2 assay), inhibition of HDM2-p53 interaction
Format: binding
Conditions: 0.2 nM GST-hMDM2, 0.5 nM biotinylated-p53, 100 mM KF
Experimental: Residues 1-83 of human p53 were expressed as an amino-terminal AviTag™-TrxA-6xHis fusion protein (biotinylated p53) in E. coli. Each protein was purified from cell paste by affinity chromatography.
Specifically, 10 uL of GST-hMDM2 was incubated with 10 ul of diluted compound (various concentrations, serially diluted) in 10% DMSO for 20 minutes at room temperature. 20 uL of biotinylated-p53 was added to the GST-hMDM2+ compound mixture, and then incubated at room temperature for 60 min. 10 uL of detection buffer consisting of SA-XLent, anti-GST cryptate antibody and KF was added to GST-hMDM2, biotinylated-p53 and compound reaction and left at room temperature to reach equilibrium for >4 hrs. The final concentration of DMSO in the reaction was 2%. Time-resolved fluorescence readings were measured on a microplate multilabel reader. Percentage of inhibition was calculated relative to nutlin-3.

T1 sequence (Q00987 1-188): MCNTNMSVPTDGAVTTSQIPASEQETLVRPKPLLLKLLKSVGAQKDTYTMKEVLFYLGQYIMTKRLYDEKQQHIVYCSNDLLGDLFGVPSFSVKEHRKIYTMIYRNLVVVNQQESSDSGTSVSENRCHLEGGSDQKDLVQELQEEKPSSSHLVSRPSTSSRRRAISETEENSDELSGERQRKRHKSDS

SMILES	IC50 [nM]
O=C(O)C[C@H]1O[C@H](c2cccc(Cl)c2)[C@@H](c2ccc(Cl)cc2)N([C@H](CS(=O)(=O)Nc2ccccc2F)C2CC2)C1=O (single isomer, unassigned) [Example 294, 2-((2R,5R,6R)-6-(3-Chlorophenyl)-5-(4-chlorophenyl)-4-((S)-1-cyclopropyl-2-(N-(2-fluorophenyl)sulfamoyl)ethyl)-3-oxomorpholin-2-yl)acetic acid or 2-((2S,5R,6R)-6-(3-chlorophenyl)-5-(4-chlorophenyl)-4-((S)-1-cyclopropyl-2-(N-(2-fluorophenyl)sulfamoyl)ethyl)-3-oxomorpholin-2-yl)acetic acid]	< 1
CC(C)(C)S(=O)(=O)C[C@H](CC(F)(F)F)N1C(=O)[C@@H](CC(N)=O)O[C@H](c2cccc(Cl)c2)[C@H]1c1ccc(Cl)cc1 (single isomer, unassigned) [Example 362, 2-((2R,5R,6R)-4-((S)-1-(tert-Butylsulfonyl)-4,4,4-trifluorobutan-2-yl)-6-(3-chlorophenyl)-5-(4-chlorophenyl)-3-oxomorpholin-2-yl)acetamide or 2-((2S,5R,6R)-4-((S)-1-(tert-butylsulfonyl)-4,4,4-trifluorobutan-2-yl)-6-(3-chlorophenyl)-5-(4-chlorophenyl)-3-oxomorpholin-2-yl)acetamide]	20
NC(=O)C[C@H]1O[C@H](c2cccc(Cl)c2)[C@@H](c2ccc(Cl)cc2)N([C@H](CN(c2ccccc2)S(=O)(=O)C2CC2)C2CC2)C1=O (single isomer, unassigned) [Example 361, 2-((2R,5R,6R)-6-(3-Chlorophenyl)-5-(4-chlorophenyl)-4-((S)-1-cyclopropyl-2-(N-phenylcyclopropanesulfonamido)ethyl)-3-oxomorpholin-2-yl)acetamide or 2-((2S,5R,6R)-6-(3-chlorophenyl)-5-(4-chlorophenyl)-4-((S)-1-cyclopropyl-2-(N-phenylcyclopropanesulfonamido)ethyl)-3-oxomorpholin-2-yl)acetamide]	< 1
CC[C@@H](CN(c1ccccc1F)S(=O)(=O)C1CC1)N1C(=O)[C@@H](CC(=O)O)O[C@H](c2cccc(Cl)c2)[C@H]1c1ccc(Cl)s1 (single isomer, unassigned) [Example 216, 2-((2R,5S,6R)-6-(3-chlorophenyl)-5-(5-chlorothiophen-2-yl)-4-((S)-1-(N-(2-fluorophenyl)cyclopropanesulfonamido)butan-2-yl)-3-oxomorpholin-2-yl)acetic acid or 2-((2S,5S,6R)-6-(3-chlorophenyl)-5-(5-chlorothiophen-2-yl)-4-((S)-1-(N-(2-fluorophenyl)cyclopropanesulfonamido)butan-2-yl)-3-oxomorpholin-2-yl)acetic acid]	< 1
CC[C@@H]([C@H](C)S(=O)(=O)C(C)C)N1C(=O)[C@@H](CC(=O)O)O[C@H](c2cccc(Cl)c2)[C@H]1c1ccc(Cl)cc1 (single isomer, unassigned) [Example 414]	1
CC[C@@H](CS(=O)(=O)C(C)(C)CC)N1C(=O)[C@@H](CC(=O)O)O[C@H](c2cccc(Cl)c2)[C@H]1c1ccc(Cl)cc1 (single isomer, unassigned) [Example 122, 2-((2R,5R,6R)-6-(3-Chlorophenyl)-5-(4-chlorophenyl)-3-oxo-4-((S)-1-(tert-pentylsulfonyl)butan-2-yl)morpholin-2-yl)acetic acid or 2-((2S,5R,6R)-6-(3-Chlorophenyl)-5-(4-chlorophenyl)-3-oxo-4-((S)-1-(tert-pentylsulfonyl)butan-2-yl)morpholin-2-yl)acetic acid]	< 1
Cc1nnc(C[C@H]2O[C@H](c3cccc(Cl)c3)[C@@H](c3ccc(Cl)cc3)N([C@H](CN(c3ccccc3F)S(=O)(=O)C3CC3)C3CC3)C2=O)o1 (single isomer, unassigned) [Example 403, N-((S)-2-((2R,3R,6R)-2-(3-Chlorophenyl)-3-(4-chlorophenyl)-6-((5-methyl-1,3,4-oxadiazol-2-yl)methyl)-5-oxomorpholino)-2-cyclopropylethyl)-N-(2-fluorophenyl)cyclopropanesulfonamide or N-((S)-2-((2S,3R,6R)-2-(3-chlorophenyl)-3-(4-chlorophenyl)-6-((5-methyl-1,3,4-oxadiazol-2-yl)methyl)-5-oxomorpholino)-2-cyclopropylethyl)-N-(2-fluorophenyl)cyclopropanesulfonamide]	2
CC[C@@H](CS(=O)(=O)C(C)(C)C)N1C(=O)[C@H](CC(N)=O)O[C@H](c2cccc(Cl)c2)[C@H]1c1ccc(Cl)cc1 (single isomer, unassigned) [Example 260, 2-((2S,5R,6R)-4-((S)-1-(tert-butylsulfonyl)butan-2-yl)-6-(3-chlorophenyl)-5-(4-chlorophenyl)-3-oxomorpholin-2-yl)acetamide or 2-((2R,5R,6R)-4-((S)-1-(tert-butylsulfonyl)butan-2-yl)-6-(3-chlorophenyl)-5-(4-chlorophenyl)-3-oxomorpholin-2-yl)]	8
CC[C@@H](CS(=O)(=O)C(C)(C)C)N1C(=O)[C@@H](C[C@@H](O)CO)O[C@H](c2cccc(Cl)c2)[C@H]1c1ccc(Cl)cc1 (single isomer, unassigned) [Example 372]	67
CC(C)(C)S(=O)(=O)C[C@H](C1CC1)N1C(=O)[C@@](C)(CC(=O)O)O[C@H](c2cccc(Cl)c2)[C@H]1c1ccc(Cl)c(F)c1 (single isomer, unassigned) [Example 412, 2-((2R,5R,6R)-4-((S)-2-(tert-Butylsulfonyl)-1-cyclopropylethyl)-5-(4-chloro-3-fluorophenyl)-6-(3-chlorophenyl)-2-methyl-3-oxomorpholin-2-yl)acetic acid or 2-((2S,5R,6R)-4-((S)-2-(tert-butylsulfonyl)-1-cyclopropylethyl)-5-(4-chloro-3-fluorophenyl)-6-(3-chlorophenyl)-2-methyl-3-oxomorpholin-2-yl)acetic acid]	11
CC1(C)CCCN1S(=O)(=O)C[C@H](C1CC1)N1C(=O)[C@@H](CC(=O)O)O[C@H](c2cccc(Cl)c2)[C@H]1c1ccc(Cl)cc1 (single isomer, unassigned) [Example 306, 2-((2R,5R,6R)-6-(3-Chlorophenyl)-5-(4-chlorophenyl)-4-((S)-1-cyclopropyl-2-((2,2-dimethylpyrrolidin-1-yl)sulfonyl)ethyl)-3-oxomorpholin-2-yl)acetic acid or 2-((2R,5R,6R)-6-(3-chlorophenyl)-5-(4-chlorophenyl)-4-((S)-1-cyclopropyl-2-((2,2-dimethylpyrrolidin-1-yl)sulfonyl)ethyl)-3-oxomorpholin-2-yl)acetic acid]	< 1
O=C1[C@@H](Cc2nnn[nH]2)O[C@H](c2cccc(Cl)c2)[C@@H](c2ccc(Cl)cc2)N1[C@H](CN(c1ccccc1F)S(=O)(=O)C1CC1)C1CC1 (single isomer, unassigned) [Example 399, N-((S)-2-((2R,5R,6R)-2-((1H-Tetrazol-5-yl)methyl)-6-(3-chlorophenyl)-5-(4-chlorophenyl)-3-oxomorpholino)-2-cyclopropylethyl)-N-(2-fluorophenyl)cyclopropanesulfonamide or N-((S)-2-((2S,5R,6R)-2-((1H-tetrazol-5-yl)methyl)-6-(3-chlorophenyl)-5-(4-chlorophenyl)-3-oxomorpholino)-2-cyclopropylethyl)-N-(2-fluorophenyl)cyclopropanesulfonamide]	< 1

Reference: patent US9376425B2, “Heterocyclic compounds as MDM2 inhibitors for the treatment of cancer” (AMGEN INC., priority 2011, dated 2016)
